Test results taken from patent publication US10799456B2, “Multiple drug lipid nanoparticle composition and related methods for extended drug levels in blood and lymph tissue” (priority 2015, dated 2020).

Columns and labels:
[1] = cited from earlier work; for LogP: Tables 18 and 19; for Hydrophobicity (Log P): Tables 20 and 21
[2] = % Drug association to particles by assembly method; format: physicochemical
Description: Select one or two drugs hydrophilic and water soluble (Class 2) drugs listed in Table 19 (for example, tenofovir and/or emtricitabine and/or lamivudine). • 3. Select the excipient combination (for example, 9 parts DSPC and 1 part PEG-DSPE). • 4. Prepare a single-phase miscible solvent that enables full solubilization of the chosen water-insoluble Class 1 drugs and water soluble Class 2 drugs plus the excipients from step 3. Examples include CHCl3:Methanol:Water (65:35:4); CHCl3:Ethanol:Water (65:35:4); CHCl3:Propanol:Water (65:35:4); and CHCl3:Hexanol:Water (65:35:4). • 5. The components in Steps 1, 2 and 3 are solubilized with the miscible solvent in step 4. • 6. The drugs (steps 1 and 2) as well as excipients (step 3) and the miscible solvent (step 4) are dried under reduced pressure with assistance of a combination of heat, reduced pressure and/or aerosolization to provide for uniformity and efficiency of drying. • 7. The dehydrated composition is heated above gel-to-liquid phase transition temperature of the excipient mixture (e.g., 50° C.). • 8. A buffered saline solution is prepared and the temperature is equilibrated to the same temperature as dehydrated composition. • 9. The buffered saline solution and dehydrated composition are gradually combined and maintained at the defined (e.g., 50° C.) for 3 hr. • 10. The resulting hydrated multi-drug lipid nanoparticles are size-reduced by sheering or forcing through small orifice or pressurized filter apparatus while maintaining at the defined temperature (in liquid phase of lipidic excipients).

[3] = cited from earlier work
[4] = Drug incorporation/encapsulation (association) efficiency of multi-drug LNPs by dialysis; format: physicochemical
Protocol: The anti-HIV LNP formulations contain both unbound drug and drugs bound to lipid nanoparticles. […] Drugs were quantified by LC-MS/MS using acetonitrile precipitation. Encapsulation efficiency (EE) was calculated as follows: […]

[5] = reported values; cited from earlier work
[6] = Plasma drug exposure of three multi-drug lipid formulations vs free drug in primates; settings: monkey, in vivo, sc, AUC Lipid Drug 0-168 h, LPV/EFV/TFV combination
[7] = Octanol-buffer distribution coefficient (shake-flask); format: physicochemical; settings: room temperature
Protocol: The octanol-buffer drug distribution coefficient at room temperature was determined by a small-scale, shake-flask method described by Dittert L W, et al. Phase Solubility Technique in Studying the Formation of Complex Salts of Triamterene. Journal of pharmaceutical sciences. […] Briefly, phosphate-buffered saline (PBS) at pH 3, 5, and 7.4 was used as the aqueous phase. […] The mixture was centrifuged at 14,000 rpm (18,078 g) (Beckman Coulter™ Microfuge® 18 centrifuge, Beckman Coulter Inc., Brea, Calif.) to separate octanol and the aqueous phase. The drug concentration in the two phases was determined with high-performance liquid chromatography tandem mass spectrometry (HPLC/MS/MS). The distribution coefficient was calculated as the ratio of the drug concentration in the octanol phase to the drug concentration in the aqueous phase. Triplicate samples were used at each pH.

[8] = Drug incorporation efficiency into lipid-drug nanoparticles (dialysis); format: physicochemical; settings: for Incorporation efficiency (%) / Drug incorporation (% total): preclinical 45 mL scale
Protocol: J Acquir Immune Defic Syndr. […] Journal of pharmaceutical sciences. […] The AAPS journal. […] Residual solvent was removed overnight by vacuum desiccation. The dried lipid-drug film was then rehydrated with 0.9% NaCl containing 20 mM sodium bicarbonate (pH 7.4). The lipid-drug samples were allowed to hydrate at 60° C. for 2 h. Then samples were sonicated (laboratory scale) or homogenized (preclinical scale) to achieve a homogenous suspension.
The incorporation efficiency was calculated as the ratio of the amount of incorporated drug over the total amount of drug loaded multiplied by 100%.

[9] = Particle size by photon correlation spectroscopy; format: physicochemical
Protocol: The mean particle size of lipid-drug nanoparticles and liposome control was determined by photon correlation spectroscopy (PCS) using a NICOMP™ 380ZLS instrument (NICOMP Particle Sizing Systems, Santa Barbara, Calif.). […] Samples were diluted with the same buffer to an identical final volume to analyze concentration effects. The light scattering data were analyzed based on intensity-weight NICOMP size distribution and expressed as a mean±SD.
Briefly, lipids and protease inhibitors were dissolved in chloroform:ethanol (3:1 v/v) and PMPA was added from a stock solution of 30 mg/ml in aqueous 150 mM NaHCO3. Solvent was removed by rotary evaporation and vacuum desiccation. The dry film was rehydrated to 200 mM lipid in 0.4% NaCl with 20 mM NaHCO3 buffer at 60° C. Particle size was reduced at 60° C. by bath sonication (laboratory scale) or high-pressure homogenization using an Emulsiflex-05 (Avestin, Ottawa, Canada) (clinical scale). LNPs were maintained at 60° C. to anneal for 30 min prior to cooling and stored at 4° C. Particle size was determined by photon correlation spectroscopy using a NICOMP 380 ZLS (Particle Sizing Systems, Santa Barbara, Calif.).

[10] = Plasma time course of ATV/RTV/TFV lipid nanoparticles in primates; format: in vivo, Macaca nemestrina; settings: male, Macaca nemestrina, in vivo, sc
Protocol: All animal procedures were performed under an approved protocol reviewed by the University of Washington Institutional Animal Care and Use Committee. […] ATV, RTV, and TFV in the plasma were extracted in duplicate and analyzed with a liquid chromatography-mass spectrometry assay with a validated reverse phase HPLC/MS/MS method, similar to that of lopinavir (LPV), RTV, and TFV. […] Antimicrobial agents and chemotherapy. 2014. The linear trapezoidal method was used to calculate the area under the plasma drug concentration-time curve (AUC) for ATV, RTV, and TFV during the time course, which was close to 168 h post-dosing. […] All drugs in buffer and plasma were analyzed using a validated HPLC/MS/MS analytical method, capable of analyzing […], and TFV. The one-step analysis for LPV, RTV, and TFV was published previously. […] Antimicrobial agents and chemotherapy. 2014. Briefly, the HPLC system was outfitted with a Shimadzu 20AD HPLC (Shimadzu Scientific Instruments, Inc., Pleasanton, Calif.). […] Multiple reaction monitoring (MRM) was used to detect transition ions from a specific precursor ion to product ion. The analytes were detected using the following m/z transitions: 705.5/168.2 for ATV, 548.3/392.3 for DRV, 721.3/296.1 for RTV, 288.1/176 for TFV, and 238.1/193.2 for cyheptamide.

For CC(C)(C)NC(=O)[C@@H]1CN(Cc2cccnc2)CCN1C[C@@H](O)C[C@@H](Cc1ccccc1)C(=O)N[C@H]1c2ccccc2C[C@H]1O [Indinavir], which LogP [1] is on record?
The LogP was 2.3.

What does the source list for Cc1nnc(C(=O)NC(C)(C)c2nc(C(=O)NCc3ccc(F)cc3)c(O)c(=O)n2C)o1 [Raltegravir]?
% Drug Association to Particles, LNPs from mixture of dual solvent method [2]: 9-25%; % Drug Association to Particles, LNPs from single, miscible solvent method [2]: 75-89%; Water solubility @ 25° C. [3]: 100 µg/mL; LogP [1]: −0.39

Which “% particle-bound” value ([4]; Combination 3, lipid:LPV:EFV:TFV 200:26.6:20:40, large scale) does the source give for O=C1Nc2ccc(Cl)cc2[C@@](C#CC2CC2)(C(F)(F)F)O1 [Efavirenz] here?
The value was “(78.7) %”.

And the “% Drug Association to Particles, LNPs from mixture of dual solvent method” value [2]?
The value was 76%.

What about the “% Drug Association to Particles, LNPs from single, miscible solvent method” value [2] of the same compound?
The value was 80-90%.

What about the “Water solubility @ 25° C.” value [3] of the same compound?
The value was 0.000093 µg/mL.

What about the “% Drug Association to Particles, Liposomes” value [5] of the same compound?
Its value is 80%.

What about the LogP [1] of the same compound?
Its LogP is 4.

And the “Hydrophobicity (Log P)” value [1]?
Its value is 4.

What about the AUC [6] of the same compound?
The AUC was 31200 ± 2700 ng·h/mL.

Which results are given for Nc1ccn([C@@H]2CS[C@H](CO)O2)c(=O)n1 [Lamivudine]?
% Drug Association to Particles, LNPs from mixture of dual solvent method [2]: 10-30%; % Drug Association to Particles, LNPs from single, miscible solvent method [2]: 85%; % Drug Association to Particles, Liposomes [5]: 4-5%

For Cc1cc(/C=C/C#N)cc(C)c1Nc1ccnc(Nc2ccc(C#N)cc2)n1 [Rilpivirine], which “% Drug Association to Particles, LNPs from mixture of dual solvent method” value [2] is on record?
The value was 75-76%.

What about the “% Drug Association to Particles, LNPs from single, miscible solvent method” value [2] of the same compound?
The value was 90-100%.

And the “Water solubility @ 25° C.” value [3]?
Its value is 0.094 µg/mL.

What about the “% Drug Association to Particles, Liposomes” value [5] of the same compound?
The value was 14%.

And the “Hydrophobicity (Log P)” value [1]?
The value was 4.5.

With C[C@@H]1CCO[C@H]2Cn3cc(C(=O)NCc4ccc(F)cc4F)c(=O)c(O)c3C(=O)N12 [Dolutegravir] as the compound, how does the “Water solubility @ 25° C.” value [3] read?
Its value is 95 µg/mL.

And the LogP [1]?
The LogP was 2.4.

Which results are given for COC(=O)N[C@H](C(=O)N[C@@H](Cc1ccccc1)[C@@H](O)CN(Cc1ccc(-c2ccccn2)cc1)NC(=O)[C@@H](NC(=O)OC)C(C)(C)C)C(C)(C)C [Atazanavir (ATV), Atazanavir]?
Log D (measured) ([7]; pH 3, octanol/PBS): 3.40 ± 0.31; Log D (measured) ([7]; pH 5, octanol/PBS): 4.66 ± 0.27; Log D (measured) ([7]; pH 7.4, octanol/PBS): 5.77 ± 0.03; Incorporation efficiency (%) ([8]; LNPs with ATV + RTV + TFV (2:1:3), laboratory 0.2 mL scale): 104.2 ± 3.2%; Incorporation efficiency (%) / Drug incorporation (% total) ([8]; LNPs with ATV + RTV + TFV (2:1:3)): 85.5 ± 8.2%; Incorporation efficiency (%) / Drug incorporation (% total) ([8]; LNPs with ATV + RTV + TFV (2:1:3), listed as atazanavir): 85.5±8.2%; Incorporation efficiency (%) ([8]; LNPs with ATV + RTV, laboratory scale, lipid:drug 8:1): 93.5 ± 6.6%; Incorporation efficiency (%) ([8]; LNPs with ATV, laboratory scale, lipid:drug 8:1): 100.5 ± 8.2%; Incorporation efficiency (%) ([8]; lipid:drug 5:1 mol/mol, DSPC:DSPE-mPEG2000 8:2): 96.5 ± 2.6%; Incorporation efficiency (%) ([8]; lipid:drug 8:1 mol/mol, DSPC:DSPE-mPEG2000 8:2): 96.2 ± 3.8%; Incorporation efficiency (%) ([8]; lipid:drug 20:1 mol/mol, DSPC:DSPE-mPEG2000 8:2): 97.4 ± 1.8%; Particle size (nm) ([9]; lipid:drug 5:1 mol/mol): 68.2 ± 7.1 nm; Particle size (nm) ([9]; lipid:drug 8:1 mol/mol): 56.3 ± 4.1 nm; Particle size (nm) ([9]; lipid:drug 20:1 mol/mol): 34.6 ± 3.1 nm; AUC fraction (% total) 8-168 h [10]: 95.3%; % particle-bound ([4]; Combination 2, lipid:ATZ:RTV:TFV 115:10:5:15, large scale): (91.9 ± 6.8) %; % Drug Association to Particles, LNPs from mixture of dual solvent method [2]: 90-100%; % Drug Association to Particles, LNPs from single, miscible solvent method [2]: 90-100%; Water solubility @ 25° C. [3]: 0.11 µg/mL; Hydrophobicity (Log P) [1]: 5.6

Which results are given for Nc1nc(=O)n([C@@H]2CS[C@H](CO)O2)cc1F [Emtricitabine]?
% Drug Association to Particles, LNPs from mixture of dual solvent method [2]: 3-10%; % Drug Association to Particles, LNPs from single, miscible solvent method [2]: 78-80%; Water solubility @ 25° C. [3]: 112000 µg/mL; % Drug Association to Particles, Liposomes [5]: 1-2%; LogP [1]: −2.4; Hydrophobicity (Log P) [1]: −1.4
